Columns and labels:
Human DAAO = Human DAAO (Homo sapiens, UniProt P14920); assay: D-Amino Acid Oxidase enzyme assay (D-serine, horseradish peroxidase/Amplex Red coupled fluorescence); format: biochemical; conditions: D-serine 5 mM, pH 7.4
How it was run: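 D-serine substrate at 5 mM (Km), 50 mM sodium phosphate pH 7.4; H2O2 output coupled via 4 U/mL horseradish peroxidase and 50 μM Amplex Red to resorufin fluorescence. Reaction started with enzyme; H2O2 control checked coupling interference; IC50 from inhibition curves.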

[1] = test system: D-serine levels in the cerebellum; assay: In vivo elevation of D-serine levels in the cerebellum; set-up: species or system Mice (C57BL/6); conditions: mice, intraperitoneal;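 further: Cutoffs are cerebellum D-serine in nmol/g wet tissue weight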
Experimental: […] Animals are sacrificed at either 2 or 6 h post compound administration with an N=3 per time point. At sacrifice, trunk blood is collected into tubes containing potassium EDTA, which are then centrifuged to permit isolation of plasma. The cerebellum is dissected from each animal. Plasma and cerebellum samples are stored at −80° C. until samples are analyzed (LC/MS/MS).

Sequence of Human DAAO (P14920 whole entry): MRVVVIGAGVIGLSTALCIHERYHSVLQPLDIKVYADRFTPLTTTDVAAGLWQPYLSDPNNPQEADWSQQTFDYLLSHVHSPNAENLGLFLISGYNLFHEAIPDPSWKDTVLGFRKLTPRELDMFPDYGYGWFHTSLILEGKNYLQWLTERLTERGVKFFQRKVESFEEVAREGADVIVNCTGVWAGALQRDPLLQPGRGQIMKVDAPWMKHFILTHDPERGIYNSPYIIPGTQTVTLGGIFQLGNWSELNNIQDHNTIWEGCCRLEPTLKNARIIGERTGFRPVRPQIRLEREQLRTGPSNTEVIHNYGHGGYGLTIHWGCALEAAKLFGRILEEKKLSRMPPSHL

| Compound | IC50 (Human DAAO) | Cerebellum D-serine at 2 hours ([1]; dose 30 mg/kg) | Cerebellum D-serine at 6 hours ([1]; dose 30 mg/kg) | Cerebellum D-serine at 2 hours ([1]; dose 60 mg/kg) | Cerebellum D-serine at 6 hours ([1]; dose 60 mg/kg) |
| --- | --- | --- | --- | --- | --- |
| COc1cccc(CC2CCc3cc(C(=O)O)[nH]c32)c1 (single isomer, unassigned) [Compound 131, 6-(3-methoxybenzyl)-1,4,5,6-tetrahydrocyclopenta[b]pyrrole-2-carboxylic acid] | ≤ 0.1 µM | (+) (2.5-4.9 = (+)) | (+) (2.5-4.9 = (+)) | – | – |
| O=C(O)c1cc2c([nH]1)CC1CC21 (single isomer, unassigned) [Compound 140, 1a,4,5,5a-tetrahydro-1H-4-aza-cyclopropa[α]pentalene-3-carboxylic acid] | ≤ 0.1 µM | (++) (>5 = (++)) | (++) (>5 = (++)) | – | – |
| O=C(O)c1cc2c([nH]1)CCC2 [Compound 1, 1,4,5,6-tetrahydro-cyclopenta[b]pyrrole-2-carboxylic acid] | ≤ 0.1 µM | (++) (>5 = (++)) | (++) (>5 = (++)) | – | – |
| O=C(O)c1cc2c([nH]1)CCC2Cc1cccc(F)c1 (centres unmarked) [Compound 54, 4-(3-fluorobenzyl)-1,4,5,6-tetrahydrocyclopenta[b]pyrrole-2-carboxylic acid] | ≤ 0.1 µM | (+) (2.5-4.9 = (+)) | (+) (2.5-4.9 = (+)) | – | – |
| Cc1cccc(CC2CCc3[nH]c(C(=O)O)cc32)c1 (centres unmarked) [Compound 70, 4-(3-methylbenzyl)-1,4,5,6-tetrahydrocyclopenta[b]pyrrole-2-carboxylic acid] | ≤ 0.1 µM | – | – | (+) (2.5-4.9 = (+)) | (+) (2.5-4.9 = (+)) |
| O=C(O)c1cc2c([nH]1)CCC2c1ccc(F)c(F)c1 (centres unmarked) [Compound 97, 4-(3,4-difluorophenyl)-1,4,5,6-tetrahydrocyclopenta[b]pyrrole-2-carboxylic acid] | ≤ 0.1 µM | – | – | (+) (2.5-4.9 = (+)) | (+) (2.5-4.9 = (+)) |
| N#Cc1cccc(C2CCc3[nH]c(C(=O)O)cc32)c1 (centres unmarked) [Compound 105, 4-(3-cyanophenyl)-1,4,5,6-tetrahydrocyclopenta[b]pyrrole-2-carboxylic acid] | ≤ 0.1 µM | – | – | (−) (<2.5 = (−)) | – |
| O=C(O)c1cc2c([nH]1)C(Cc1cc(F)cc(Cl)c1)CC2 (centres unmarked) [Compound 124, 6-(3-chloro-5-fluorobenzyl)-1,4,5,6-tetrahydrocyclopenta[b]pyrrole-2-carboxylic acid] | ≤ 0.1 µM | – | – | (−) (<2.5 = (−)) | (−) (<2.5 = (−)) |
| CCOC(=O)c1[nH]c2c(c1O)CCC2 [Compound 137, ethyl 3-hydroxy-1,4,5,6-tetrahydrocyclopenta[b]pyrrole-2-carboxylate] | > 100 µM | (+) (2.5-4.9 = (+)) | (+) (2.5-4.9 = (+)) | – | – |
| O=C(O)c1cc2c([nH]1)[C@@H]1C[C@@H]1C2 [Compound 146, (1aR,5aR)-1a,2,5,5a-tetrahydro-1H-2-aza-cyclopropa[α]pentalene-3-carboxylic acid] | ≤ 0.1 µM | – | – | (++) (>5 = (++)) | (++) (>5 = (++)) |
